{"source": "patent US8840931B2", "about": "“Pharmaceutical compositions for dehydrating, atrophying and eliminating pathological tissues” (priority 2008, dated 2014)", "key": {"bleeding wounds": {"tested_on": "bleeding wounds", "assay": "Treatment of bleeding wounds for hemostasis", "assay_type": "in vivo", "details": "used for hemostasis", "from_the_text": "The inventors determined that the mechanism of this phenomenon was the dehydration, atrophy, and elimination of blood and blood tissues, rather than the well-known mechanism of an astringent of Monsell in the literature in which hemostasis was caused by forming a thrombus of blood platelet and fibrin, aggregation of erythrocyte, and accelerated coagulation of blood."}, "related diseases": {"tested_on": "related diseases", "assay": "Clinical experiment observations (overall statement)", "details": "human, in vivo"}}}
{"substance": "ferric subsulfate", "values": [{"measurement": "observation on bleeding wounds", "setting": "bleeding wounds", "value": "formation of black solid particulate matter was observed"}, {"measurement": "clinical use to treat related diseases", "setting": "related diseases", "value": "successfully used"}]}
